Measurements published in PMC12238723, “Phase I Clinical Trial of CVL218, a Novel PARP1/2 Inhibitor, in Patients with Advanced Solid Tumors” (MedComm, 2025).

Test system: advanced solid tumors
Assay: Antitumor activity, tumor response per RECIST 1.1 and PFS
Type: in vivo, patients
Excerpt: This study was a single‐arm, dose‐escalation phase I trial conducted in Sun Yat‐sen University Cancer Center in China. This study assessed CVL218 in patients with histologically or cytologically confirmed advanced solid tumors who were in PD after standard therapeutic regimens or lacked standard treatment options. Inclusion criteria included: age 18–75 years; with at least one measurable and evaluable target lesion per Response Evaluation Criteria in Solid Tumors 1.1 (RECIST 1.1); ECOG performance status of 0 or 1; adequate hematological, renal, cardiac, and hepatic functions and a life expectancy ≥12 weeks. Key exclusion criteria included prior usage of PARP inhibitors; allergic to the research drug or its components; with active, unstable systemic diseases or active, uncontrolled infection; a history of other malignancies within 5 years, and pregnant or lactating women.
Single‐dose and multiple‐dose PK parameters included C max, T max, elimination half‐life (T 1/2), AUC0– t , AUC0–inf, oral clearance (CL/F), and apparent volume of distribution (V z/F) for CVL218. Tumor response was assessed per RECIST 1.1. ORR was defined as proportion of patients with a CR or PR on at least one visit, while DCR was defined as proportion of patients with a CR or PR or SD. PFS was defined as the time from the first dose of either drug to investigator assessed radiologic PD or to death of any cause. PFS would be censored at the time of last tumor assessment.
Subjects who received at least one dose of CVL218 with postadministration safety records were included in safety analysis set. Subjects who received at least one dose of CVL218 with at least one evaluable PK parameter were included in PK analysis set. Per‐protocol set were used for efficacy analysis. Descriptive statistics of safety were presented per CTCAE v5.0. The PK parameters T max and T 1/2 were shown as the median (min, max) and mean ± SD, respectively. A two‐sided p < 0.05 was considered to indicate statistical significance. Statistical analysis was performed by using GraphPad prism 8.0.2 and R‐4.3.3.

Compound: CNCc1ccc(-c2cc3cc(F)cc(C(N)=O)c3o2)cc1.Cl [CVL218]
- BOR, CR (50 mg BID (N = 1)): 0 n (%)
- BOR, PD (50 mg BID (N = 1)): 1 (100) n (%)
- BOR, PR (50 mg BID (N = 1)): 0 n (%)
- DCR (50 mg BID (N = 1)): 0 (0, 97.50) n (%) (95%CI)
- ORR (50 mg BID (N = 1)): 0 (0, 97.5) n (%) (95%CI)
- mPFS (50 mg BID (N = 1)): 1.05 months
- BOR, CR (100 mg BID (N = 1)): 0 n (%)
- BOR, PD (100 mg BID (N = 1)): 1 (100) n (%)
- BOR, PR (100 mg BID (N = 1)): 0 n (%)
- DCR (100 mg BID (N = 1)): 0 (0, 97.50) n (%) (95%CI)
- ORR (100 mg BID (N = 1)): 0 (0, 97.5) n (%) (95%CI)
- mPFS (100 mg BID (N = 1)): 1.05 months
- BOR, CR (200 mg BID (N = 1)): 0 n (%)
- BOR, PD (200 mg BID (N = 1)): 0 n (%)
- BOR, PR (200 mg BID (N = 1)): 0 n (%)
- DCR (200 mg BID (N = 1)): 1 (100) (2.5, 100.0) n (%) (95%CI)
- ORR (200 mg BID (N = 1)): 0 (0, 97.5) n (%) (95%CI)
- mPFS (200 mg BID (N = 1)): 1.97 months
- BOR, CR (350 mg BID (N = 4)): 0 n (%)
- BOR, PD (350 mg BID (N = 4)): 1 (25.0) n (%)
- BOR, PR (350 mg BID (N = 4)): 0 n (%)
- DCR (350 mg BID (N = 4)): 3 (75.0) (19.4, 99.4) n (%) (95%CI)
- ORR (350 mg BID (N = 4)): 0 (0, 60.2) n (%) (95%CI)
- mPFS (350 mg BID (N = 4)): 2.34 months
- BOR, CR (500 mg BID (N = 4)): 0 n (%)
- BOR, PD (500 mg BID (N = 4)): 1 (25.0) n (%)
- BOR, PR (500 mg BID (N = 4)): 0 n (%)
- DCR (500 mg BID (N = 4)): 3 (75.0) (19.4, 99.4) n (%) (95%CI)
- ORR (500 mg BID (N = 4)): 0 (0, 60.2) n (%) (95%CI)
- mPFS (500 mg BID (N = 4)): 3.27 months
- BOR, CR (600 mg BID (N = 3)): 0 n (%)
- BOR, PD (600 mg BID (N = 3)): 3 (100) n (%)
- BOR, PR (600 mg BID (N = 3)): 0 n (%)
- DCR (600 mg BID (N = 3)): 0 (0, 70.8) n (%) (95%CI)
- ORR (600 mg BID (N = 3)): 0 (0, 70.8) n (%) (95%CI)
- mPFS (600 mg BID (N = 3)): 1.02 months
- BOR, CR (700 mg BID (N = 6)): 0 n (%)
- BOR, PD (700 mg BID (N = 6)): 0 n (%)
- BOR, PR (700 mg BID (N = 6)): 0 n (%)
- DCR (700 mg BID (N = 6)): 6 (100) (54.1, 100.0) n (%) (95%CI)
- ORR (700 mg BID (N = 6)): 0 (0, 45.9) n (%) (95%CI)
- mPFS (700 mg BID (N = 6)): 2.27 months
- BOR, CR (850 mg BID (N = 4)): 0 n (%)
- BOR, PD (850 mg BID (N = 4)): 0 n (%)
- BOR, PR (850 mg BID (N = 4)): 0 n (%)
- DCR (850 mg BID (N = 4)): 4 (100) (39.8, 100.0) n (%) (95%CI)
- ORR (850 mg BID (N = 4)): 0 (0, 60.2) n (%) (95%CI)
- mPFS (850 mg BID (N = 4)): 2.35 months
- mPFS (7 breast cancer patients): 1.71 months
- mPFS (7 patients whose best overall response was PD): 1.05 months
- mPFS (10 patients on high-level doses (≥700 mg BID)): 2.35 months
- mPFS (14 patients on low-level doses (<700 mg BID)): 1.80 months
- mPFS (17 patients with SD): 2.79 months
- complete response (CR) or partial response (PR) (24 subjects of efficacy analysis set): none of them achieved complete response (CR) or partial response (PR)
- BOR, CR (Breast cancer (N=7)): 0 n (%)
- BOR, PD (Breast cancer (N=7)): 2 (28.6) n (%)
- BOR, PR (Breast cancer (N=7)): 0 n (%)
- DCR (Breast cancer (N=7)): 71.4 (29.0, 96.3) n (%) (95%CI)
- ORR (Breast cancer (N=7)): 0 (0, 41.0) n (%) (95%CI)
- mPFS (Breast cancer (N=7)): 1.71 months
- BOR, CR (Lung cancer (N=10)): 0 n (%)
- BOR, PD (Lung cancer (N=10)): 4 (40.0) n (%)
- BOR, PR (Lung cancer (N=10)): 0 n (%)
- ORR (Lung cancer (N=10)): 0 (0, 30.9) n (%) (95%CI)
- mPFS (Lung cancer (N=10)): 2.12 months
- BOR, CR (Other types (N=7)): 0 n (%)
- BOR, PD (Other types (N=7)): 1 (14.3) n (%)
- BOR, PR (Other types (N=7)): 0 n (%)
- DCR (Other types (N=7)): 85.7 (42.1, 99.6) n (%) (95%CI)
- ORR (Other types (N=7)): 0 (0, 41) n (%) (95%CI)
- mPFS (Other types (N=7)): 1.91 months
- BOR, CR (Overall (N = 24)): 0 n (%)
- BOR, PD (Overall (N = 24)): 7 (29.2) n (%)
- BOR, PR (Overall (N = 24)): 0 n (%)
- DCR (Overall (N = 24)): 17 (70.8) (48.9, 87.4) n (%) (95%CI)
- ORR (Overall (N = 24)): 0 (0, 14.3) n (%) (95%CI)
- mPFS (Overall (N = 24)): 1.89 months
- median PFS (mPFS) (all subjects, PFS events in 24 patients): 1.89 months
- DCR (breast cancer): 71.4%
- disease control rate (DCR) (high-level doses (≥700 mg BID, n = 10)): 100%
- disease control rate (DCR) (low-level dose group (<700 mg BID, n = 14)): 50%
- DCR (lung cancer): 60%
- DCR (other cancers): 85.7%
- disease control rate (DCR) (overall, 24 patients): 70.8%
- mPFS (patients with lung cancer): 2.12 months
- disease control rate (DCR) (recommended dose (700 mg BID, n = 6)): 100%
- mPFS (seven patients with other cancer types): 1.91 months
